Columns and labels:
HIV-1 strain IIIB = assay: Inhibition of replication of HIV-1 (IIIB strain) in MT-4 cells, MTT assay; assay type: cell-based; details: Human immunodeficiency virus 1, IIIB, MT4, 120 h; MT-4 cells, MTT assay, five days after infection, 50% protection from cytopathic effect; read-out: EC50 (μM) HIV-1 (IIIB)
HIV-2 strain (ROD) = assay: Inhibition of replication of HIV-2 (ROD strain) in MT-4 cells, MTT assay; assay type: cell-based; details: Human immunodeficiency virus 2, MT4, 120 h; MT-4 cells, MTT assay, five days after infection, 50% protection from cytopathic effect; read-out: EC50 (μM) HIV-2 (ROD)
in vitro = details: human
[1] = test system: genotype 1a H-77 replicon; assay: HCV-1a replicon potency in RLuc-1 cells, bioluminescence; assay type: cell-based; details: for HCV-1a Replicon Selectivity Index: CC50/EC50, genotype 1a replicon; for EC50: Hepatitis C virus, 72 h, read-out: HCV-1a Replicon EC50 (μM)
[2] = Cytotoxicity in HCV-1a replicon cells, Promega CellTiter-Glo cell viability assay

`CSc1nc(N)nc2sc(-c3ccc(F)cc3)nc12` [Example 16, 2-(4-fluorophenyl)-7-(methylthio)thiazolo[5,4-d]pyrimidin-5-amine] gave an EC50 (HIV-1 strain IIIB) greater than 233 µM, an EC50 (HIV-2 strain (ROD)) greater than 82.1 µM and a CC50 (in vitro) of 82.1 µM.
With `Nc1nc(N2CCNCC2)c2nc(-c3ccc(F)cc3)sc2n1` [Example 25, 2-(4-fluorophenyl)-7-(piperazin-1-yl)-thiazolo[5,4-d]pyrimidin-5-amine] the EC50 (HIV-1 strain IIIB) was greater than 1.8 µM, the EC50 (HIV-2 strain (ROD)) was greater than 1.8 µM and the CC50 (in vitro) was 1.8 µM.
`Nc1nc(SCc2ccccc2)c2nc(-c3ccc(F)cc3)sc2n1` [Example 28, 7-(benzylthio)-2-(4-fluorophenyl)thiazolo[5,4-d]pyrimidin-5-amine] gave an EC50 (HIV-1 strain IIIB) greater than 339 µM, an EC50 (HIV-2 strain (ROD)) greater than 339 µM and a CC50 (in vitro) greater than 339 µM.
`COCCOc1nc(N)nc2sc(-c3ccc(F)cc3)nc12` [Example 29, 2-(4-fluorophenyl)-7-(2-methoxyethoxy)-thiazolo[5,4-d]pyrimidin-5-amine] showed an EC50 (HIV-1 strain IIIB) greater than 390 µM, an EC50 (HIV-2 strain (ROD)) of 220 µM and a CC50 (in vitro) greater than 390 µM.
In the case of `CCOc1nc(N)nc2sc(-c3ccc(F)cc3)nc12` [Example 30, 7-ethoxy-2-(4-fluorophenyl)thiazolo[5,4-d]pyrimidin-5-amine], the EC50 (HIV-1 strain IIIB) is reported as greater than 373 µM, the EC50 (HIV-2 strain (ROD)) is reported as greater than 373 µM and the CC50 (in vitro) is reported as greater than 373 µM.
In the case of `CCOc1nc(N)nc2sc(Cc3ccc(F)cc3)nc12` [Example 31, 7-ethoxy-2-(4-fluorobenzyl)thiazolo[5,4-d]pyrimidin-5-amine], the EC50 (HIV-1 strain IIIB) is reported as greater than 411 µM, the EC50 (HIV-2 strain (ROD)) is reported as greater than 411 µM and the CC50 (in vitro) is reported as greater than 411 µM.
`Nc1nc(N2CCOCC2)c2nc(-c3ccc(F)cc3)sc2n1` [Example 33, 2-(4-fluorophenyl)-7-morpholino-thiazolo[5,4-d]pyrimidin-5-amine] gave an EC50 (HIV-1 strain IIIB) greater than 207 µM, an EC50 (HIV-2 strain (ROD)) of 141 µM and a CC50 (in vitro) of 235 µM.
For `Nc1nc(N2CCOCC2)c2nc(Cc3ccc(F)cc3)sc2n1` [Example 34, 2-(4-fluorobenzyl)-7-morpholino-thiazolo[5,4-d]pyrimidin-5-amine], the EC50 (HIV-1 strain IIIB) was greater than 362 µM, the EC50 (HIV-2 strain (ROD)) was greater than 362 µM and the CC50 (in vitro) was greater than 362 µM.
In the case of `Cc1cccc(N2CCN(c3nc(N)nc4sc(-c5ccc(F)cc5)nc34)CC2)c1` [Example 35, 2-(4-fluorophenyl)-7-(4-m-tolylpiperazin-1-yl)-thiazolo[5,4-d]pyrimidin-5-amine], the EC50 (HIV-1 strain IIIB) is reported as greater than 234 µM, the EC50 (HIV-2 strain (ROD)) is reported as greater than 38.5 µM and the CC50 (in vitro) is reported as 234 µM.
`Nc1nc(N2CCN(c3nccs3)CC2)c2nc(-c3ccc(F)cc3)sc2n1` [Example 36, 2-(4-fluorophenyl)-7-(4-(thiazol-2-yl)piperazin-1-yl)thiazolo[5,4-d]pyrimidin-5-amine] gave an EC50 (HIV-1 strain IIIB) greater than 29 µM, an EC50 (HIV-2 strain (ROD)) greater than 36.4 µM and a CC50 (in vitro) of 36.4 µM.
`CCCCCN1CCN(c2nc(N)nc3sc(-c4ccc(F)cc4)nc23)CC1` [Example 37, 2-(4-fluorophenyl)-7-(4-pentylpiperazin-1-yl)thiazolo[5,4-d]pyrimidin-5-amine] showed an EC50 (HIV-1 strain IIIB) greater than 312 µM, an EC50 (HIV-2 strain (ROD)) of 212 µM and a CC50 (in vitro) greater than 312 µM.
Work on `Nc1nc(N2CCN(CC(=O)N3CCOCC3)CC2)c2nc(-c3ccc(F)cc3)sc2n1` [Example 38, 2-(4-(5-amino-2-(4-fluorophenyl)thiazolo[5,4-d]pyrimidin-7-yl)piperazin-1-yl)-1-morpholinoethanone] yielded an EC50 (HIV-1 strain IIIB) greater than 251 µM, an EC50 (HIV-2 strain (ROD)) greater than 201 µM and a CC50 (in vitro) of 201 µM.
For `Nc1nc(N2CCN(Cc3ccccc3)CC2)c2nc(-c3ccc(F)cc3)sc2n1` [Example 39, 7-(4-benzylpiperazin-1-yl)-2-(4-fluorophenyl)thiazolo[5,4-d]pyrimidin-5-amine], the EC50 (HIV-1 strain IIIB) was greater than 45.2 µM, the EC50 (HIV-2 strain (ROD)) was greater than 45.2 µM and the CC50 (in vitro) was 45.2 µM.
Work on `Nc1nc(N2CCN(C(=O)OCc3ccccc3)CC2)c2nc(-c3ccc(F)cc3)sc2n1` [Example 40, benzyl-4-(5-amino-2-(4-fluorophenyl)thiazolo[5,4-d]pyrimidin-7-yl)piperazine-1-carboxylate] yielded an EC50 (HIV-1 strain IIIB) greater than 241 µM, an EC50 (HIV-2 strain (ROD)) greater than 241 µM and a CC50 (in vitro) of 241 µM.
For `Nc1nc(N2CCN(S(=O)(=O)c3ccccc3)CC2)c2nc(-c3ccc(F)cc3)sc2n1` [Example 41, 2-(4-fluorophenyl)-7-(4-(phenylsulfonyl)piperazin-1-yl)thiazolo[5,4-d]pyrimidin-5-amine], the EC50 (HIV-1 strain IIIB) was greater than 237 µM, the EC50 (HIV-2 strain (ROD)) was greater than 237 µM and the CC50 (in vitro) was 237 µM.
Molecule `Cc1ccc(NC(=O)N2CCN(c3nc(N)nc4sc(-c5ccc(F)cc5)nc34)CC2)cc1` [Example 42, 4-(5-amino-2-(4-fluorophenyl)-thiazolo[5,4-d]pyrimidin-7-yl)-N-p-tolylpiperazine-1-carboxamide] has an EC50 (HIV-1 strain IIIB) of 1.35 µM, an EC50 (HIV-2 strain (ROD)) of 0.98 µM and a CC50 (in vitro) of 28.2 µM.
In the case of `Cc1cccc(NC(=O)N2CCN(c3nc(N)nc4sc(-c5ccc(F)cc5)nc34)CC2)c1` [Example 43, 4-(5-amino-2-(4-fluorophenyl)thiazolo[5,4-d]pyrimidin-7-yl)-N-m-tolylpiperazine-1-carboxamide], the EC50 (HIV-1 strain IIIB) is reported as 0.4 µM, the EC50 (HIV-2 strain (ROD)) is reported as 0.39 µM and the CC50 (in vitro) is reported as 15.8 µM.
With `Cc1cccc(NC(=O)N2CCN(c3nc(N)nc4sc(Cc5ccc(F)cc5)nc34)CC2)c1` [Example 44, 4-(5-amino-2-(4-fluorobenzyl)thiazolo[5,4-d]pyrimidin-7-yl)-N-m-tolylpiperazine-1-carboxamide] the EC50 (HIV-1 strain IIIB) was 4.02 µM, the EC50 (HIV-2 strain (ROD)) was 0.85 µM and the CC50 (in vitro) was 10.1 µM.
`COc1ccc(OCC(=O)N2CCN(c3nc(N)nc4sc(CCc5ccc(F)cc5)nc34)CC2)cc1` [Example 50, 1-(4-(5-amino-2-(4-fluorophenethyl)thiazolo[5,4-d]pyrimidin-7-yl)piperazin-1-yl)-2-(4-methoxyphenoxy)ethanone] showed an EC50 (HIV-1 strain IIIB) of 3.5 µM, an EC50 (HIV-2 strain (ROD)) greater than 212 µM and a CC50 (in vitro) of 212 µM.
Molecule `Cc1cccc(NC(=O)N2CCN(c3nc(N)nc4sc(C(C)c5ccc(F)cc5)nc34)CC2)c1` (stereo not drawn) [Example 68, 4-(5-amino-2-(1-(4-fluorophenyl)ethyl)thiazolo[5,4-d]pyrimidin-7-yl)-N-m-tolylpiperazine-1-carboxamide] has an EC50 (HIV-1 strain IIIB) greater than 30.3 µM, an EC50 (HIV-2 strain (ROD)) greater than 30.3 µM and a CC50 (in vitro) of 30.3 µM.
In the case of `Nc1nc(N2CCN(C(=O)COc3ccc(Cl)cc3)CC2)c2nc(-c3ccc(Cl)c(Cl)c3)sc2n1` [Example 116, 5-amino-7-[4-(4-chlorophenoxyacetyl)piperazin-1-yl]-2-(3,4-dichlorophenyl)thiazolo[5,4-d]pyrimidine], the “HCV-1a Replicon Selectivity Index” value [1] is reported as 0.8, the EC50 [1] is reported as greater than 44.4 µM and the CC50 at 72 h [2] is reported as 37.2 µM.
For `Nc1nc(N2CCN(C(=O)COc3ccc(Cl)cc3)CC2)c2nc(C3(c4ccc(Cl)cc4)CC3)sc2n1` [Example 117, 5-amino-7-[4-(4-chlorophenoxyacetyl)piperazin-1-yl]-2-(1-(4-chlorophenyl)cyclopropyl)thiazolo[5,4-d]pyrimidine], the “HCV-1a Replicon Selectivity Index” value [1] was 1.3, the EC50 [1] was 17.7 µM and the CC50 at 72 h [2] was 23.3 µM.
With `Nc1nc(N2CCN(C(=O)COc3ccc(Cl)cc3)CC2)c2nc(CCc3ccccc3)sc2n1` [Example 118, 5-amino-7-[4-(4-chlorophenoxyacetyl)piperazin-1-yl]-2-(2-phenylethyl)thiazolo[5,4-d]pyrimidine] the “HCV-1a Replicon Selectivity Index” value [1] was 8.4, the EC50 [1] was 3.6 µM and the CC50 at 72 h [2] was 30.3 µM.
`Nc1nc(N2CCN(C(=O)COc3ccc(Cl)cc3)CC2)c2nc(-c3ccc(F)cc3)oc2n1` [Example 169, 1-(4-(5-amino-2-(4-fluorophenyl)oxazolo[5,4-d]pyrimidin-7-yl)piperazin-1-yl)-2-(4-chlorophenoxy)ethanone] showed an EC50 (HIV-1 strain IIIB) greater than 50 µM, an EC50 (HIV-2 strain (ROD)) greater than 50 µM and a CC50 (in vitro) greater than 50 µM.
For `Nc1nc(N2CCOCC2)c2cc(-c3ccc(F)cc3)sc2n1` [Example 364, 6-(4-fluorophenyl)-4-morpholinothieno[2,3-d]pyrimidin-2-amine], the EC50 (HIV-1 strain IIIB) was greater than 239 µM, the EC50 (HIV-2 strain (ROD)) was greater than 239 µM and the CC50 (in vitro) was 239 µM.
